Data taken from patent US7371779B2, “Synergistic compositions of N-acylhomoserine lactones and 4-quinolones” (The Secretary of State for Defense Science and Technology, priority 2001, dated 2008).
Like-named read-outs stand apart in the source and are kept apart here.

What was measured:
murine splenocytes = experiment: ConA mitogen-stimulated proliferation of murine splenocytes ([3H]-thymidine incorporation); type: cell-based, mouse (BALB/c); conditions: for IC50: ConA 1 μg/ml, 100,000 spleen cells, Experiment I, read-out: IC50 in inhibition of ConA induced murine splenocyte proliferation
Experimental: (§1) Proliferation was assessed by the incorporation of [^3H]-thymidine into DNA. Eight-week-old female BALB/c mice were obtained from Harlan (Bicester, Oxon, UK) and given food and water ad libitum. Splenocyte suspensions were prepared by removing the spleens and placing them into RPMI 1640 medium. The spleens were forced through 70-μm-pore-size wire gauzes using the plunger from a 5-ml syringe to produce a single cell suspension. The cells were pelleted by centrifugation, and erythrocytes were lysed with 0.017 M Tris, 0.144 M ammonium chloride buffer, pH 7.2. Leucocytes were washed twice with RPMI 1640 medium with 2% (vol/vol) foetal calf serum (FCS) and resuspended in complete cell culture medium (CTCM) consisting of RPMI 1640 medium with 5% FCS, 2 mM L-glutamine, and 5×10^−5 M 2-mercaptoethanol. HSL compounds were tested at doubling down dilutions ranging from 1 mM to 0.1 μM in a final volume of 200 μl of CTCM, containing ConA (Sigma, Poole, UK) at 1 μg/ml and 100,000 spleen cells. Following incubation for 48 h at 37° C. in 5% CO2-air, 0.25 μCi [^3H]-thymidine (Amersham) in 10 μl volume made up in RPMI 1640 medium was added and the cells were incubated for a further 24 h. Cells were harvested onto fibreglass filters with a Packard filtermate harvester. After the addition of 25 μl of MicroScint-O (Packard) to each well the filters were counted with the Packard TopCount scintillation counter.
(§2) Mitogen (Concanavalin A) induced murine splenocyte proliferation was indicated by the incorporation of tritated thymidine into the DNA in the mouse spleen cells as shown by counts per minute using the scintillation counter. The inhibitory effect of an HSL compound being tested on cell proliferation was indicated by a reduction in counts per minute.
as §1, with “70 μm pore size” for “70-μm-pore-size”, “5 ml” for “5-ml”, “The title compound was” for “HSL compounds were”, “dilutions” for “dilutions ranging from 1 mM to 0.1 μM in a final volume of 200 μl of CTCM,”, “g/ml” for “μg/ml”, “COrair,” for “CO2-air,”
as §2, with “the title” for “an HSL”

human PBMC = experiment: ConA mitogen-stimulated proliferation of human PBMC ([3H]-thymidine incorporation); type: cell-based; conditions: Experiment II, read-out: IC50 in inhibition of ConA induced cell proliferation of PBMC
Experimental: Blood specimens were obtained with consent from healthy human volunteers. Human peripheral blood mononuclear cells (PBMC) were isolated from heparinised whole blood by buoyant density centrifugation over Histopaque 1077 (Sigma, Poole, UK) at 600 g for 20 minutes. PBMC harvested from the ‘buffy’ layers were washed twice with RPMI 1640 medium and resuspended in CTCM. […] Human PBMC were incubated for 48 h at 37° C. in 5% CO2-air, followed by pulsing with 0.25 μCi [^3H]-thymidine (see above). After a further incubation of 24 h cells were harvested onto fibreglass filters and then counted in the presence of MicroScint-O with the Packard TopCount.
Concanavalin induced cell proliferation of human peripheral blood mononuclear cells (PBMC) was tracked, as described in I above, by a measurement of counts per minute using the scintillation counter. The inhibitory effect of an HSL compound being tested on cell proliferation was indicated by a reduction in counts per minute. […] Columns B, C and D represent different sources of human PBMC samples used.
Plots of counts per minute (cpm) against the concentration of the quorum sensing molecules and the vehicle are shown in FIG. 11.

TNF-alpha = TNF-alpha production from LPS-stimulated human PBMC (sandwich ELISA); type: cell-based; conditions: for IC50: Experiment III, read-out: IC50 in inhibition of LPS induced production of TNF-α by human PBMC
Experimental: Bacterial lipopolysaccharide (LPS) stimulates the production of a variety of cytokines, including TNF-alpha, from human PBMC; these cytokines in turn influence the development of T cells, supporting a T helper 1 conducive milieu. Human PBMC prepared from whole blood by buoyant density centrifugation were resuspended in CTCM. […] Following incubation for 24 h at 37° C. in 5% CO2-air, the cell culture supernatants were collected and tested for TNF-alpha levels by ‘sandwich’ ELISA. Briefly, 96-well Nunc MaxiSorp (Life Technologies, Paisley, UK) plates were coated with 50 μl of a 2 μg/ml solution of mouse anti-human TNF-alpha monoclonal antibody (Pharmingen, UK) in 0.05 M carbonate/bicarbonate buffer, pH 9.6 overnight at 4° C. After washing the plates three times with PBS-Tween, which contained phosphate buffered saline (PBS) with 0.5% (vol/vol) Tween 20 (Sigma, Poole, UK), the plates were blocked with 1% (wt/vol) bovine serum albumin (BSA) (Sigma, Poole, UK) at room temperature for 2 h. Following three washes with PBS-Tween, 50 μl of cell culture supernatants were added and incubated overnight at 4° C.; standard human TNF-alpha (Pharmingen, UK) ranging from 2000 to 31.25 pg/ml were included for each plate. After four washes with PBS-Tween, 50 μl of a second antibody, biotinylated mouse anti-human TNF-alpha monoclonal antibody (Pharmingen, UK) was added at 0.5 μg/1 ml diluted in 1% BSA in PBS-Tween and incubated at room temperature for 1 h. Following four washes, the bound biotinylated antibody was detected with 50 μl of a 1:1,000 dilution of Streptavidin-peroxidase (Pharmingen, UK). At the end of an hour incubation at room temperature, the plates were thoroughly washed six times with PBS-Tween and the assay was developed by the addition of 100 μl of 0.1 mg/ml of tetramethyl benzidine subtrate (Sigma, Poole, UK) in 0.1 M sodium acetate buffer, pH 6 containing 0.03% H2O2. The enzyme reaction was stopped with 50 μl of 2.5 M H2SO4 after an incubation of 10 minutes at room temperature and the development was read at 450 nm with a spectrophotometric 96-well plate reader (Dynex).

Row | Molecule | IC50 (murine splenocytes) [µM] | IC50 (human PBMC; human PBMC source B) [µM] | other results
1 | CCCCCCCCC(=O)CC(=O)N[C@H]1CCOC1=O [Example 1, N-(3-oxoundecanoyl)-L-homoserine lactone] | 9 | 63 | IC50 (human PBMC; human PBMC source C): 13 µM; IC50 (human PBMC; human PBMC source D): 44 µM
2 | O=C(CCCCCCCCBr)CC(=O)N[C@H]1CCOC1=O [Example 2, N-(11-Bromo-3-oxoundecanoyl)-L-homoserine lactone] | 6 | 18 | –
3 | CC(C)CCCCCCC(=O)CC(=O)N[C@H]1CCOC1=O [Example 3, N-(10-Methyl-3-oxoundecanoyl)-L-homoserine lactone] | 8 | – | IC50 (human PBMC; human PBMC source D): 25 µM
4 | COC(=O)CCCCCCC(=O)CC(=O)N[C@H]1CCOC1=O [Example 4, N-(10-Methoxycarbonyl-3-oxodecanoyl)-L-homoserine lactone] | 73 | 20 | IC50 (human PBMC; human PBMC source D): 63 µM
5 | CCCCCC(C)CCC(=O)CC(=O)N[C@H]1CCOC1=O (stereo partly drawn) [Example 5, N-(6-Methyl-3-oxoundecanoyl)-L-homoserine lactone] | 5 | 20 | –
6 | O=C(CCCCCCCCCBr)CC(=O)N[C@H]1CCOC1=O [Example 7, N-(12-Bromo-3-oxododecanoyl)-L-homoserine lactone] | 6 | 20 | IC50 (TNF-alpha): 63 µM; IC50 (human PBMC; human PBMC source D): 7 µM
7 | CCCCCCCCCCC(=O)CC(=O)N[C@H]1CCOC1=O [Example 8, N-(3-Oxotridecanoyl)-L-homoserine lactone] | 4 | 41 | IC50 (human PBMC; human PBMC source C): 7 µM; IC50 (human PBMC; human PBMC source D): 25 µM
8 | O=C(CCCCCCCCCCBr)CC(=O)N[C@H]1CCOC1=O [Example 9, N-(13-Bromo-3-oxotridecanoyl)-L-homoserine lactone] | 3 | 8 | IC50 (human PBMC; human PBMC source D): 12 µM
9 | C=CCCCCCCCCC(=O)CC(=O)N[C@H]1CCOC1=O [Example 10, N-(3-Oxo-12-tridecenoyl)-L-homoserine lactone] | 7 | – | –
10 | O=C(CCCCCCCCCCCBr)CC(=O)N[C@H]1CCOC1=O [Example 12, N-(14-Bromo-3-oxotetradecanoyl)-L-homoserine lactone] | 8 | – | –
11 | COC(=O)CCCCCCCCCCC(=O)CC(=O)N[C@H]1CCOC1=O [Example 13, N-(13-Methoxycarbonyl-3-oxotridecanoyl)-L-homoserine lactone] | 6 | 15 | IC50 (human PBMC; human PBMC source D): 20 µM
12 | CCCCCCC=CCCCC(=O)CC(=O)N[C@H]1CCOC1=O [Example 14, N-(3-Oxo-7-tetradecenoyl)-L-homoserine lactone] | 17 | – | –
13 | CCCC=CCCCCCCC(=O)CC(=O)N[C@H]1CCOC1=O [Example 16, N-(3-Oxo-10-tetradecenoyl)-L-homoserine lactone] | 15 | – | –
14 | CCC=CCCCCCCCC(=O)CC(=O)N[C@H]1CCOC1=O [Example 17, N-(3-Oxo-11-tetradecenoyl)-L-homoserine lactone] | 12 | – | –
15 | C=CCCCCCCCCCC(=O)CC(=O)N[C@H]1CCOC1=O [Example 18, N-(3-Oxo-13-tetradecenoyl)-L-lactone homoserine] | 10 | – | –
16 | O=C(CCCCCCCCCO)CC(=O)N[C@H]1CCOC1=O [Example 19, N-(12-Hydroxy-3-oxododecanoyl)-L-homoserine lactone] | 9 | – | IC50 (TNF-alpha): 70 µM
17 | CN(C)C(=O)CCCCCCCCC(=O)CC(=O)N[C@H]1CCOC1=O [Example 20, N-[11-(N,N-Dimethylcarbamoyl)-3-oxoundecanoyl]-L-homoserine lactone] | 35 | – | –
18 | CCCCCCCCCC(O)CC(=O)N[C@H]1CCOC1=O (stereo partly drawn) [Example 21, N-(3-Hydroxydodecanoyl)-L-homoserine lactone] | 12 | – | –
19 | CCCCCCCCCCCC(O)CC(=O)N[C@H]1CCOC1=O (stereo partly drawn) [Example 22, N-(3-Hydroxytetradecanoyl)-L-homoserine lactone] | 7 | – | –
20 | CCCCCCC=CCCCC(O)CC(=O)N[C@H]1CCOC1=O (stereo partly drawn) [Example 23, N-(3-Hydroxy-7-tetradecenoyl)-L-homoserine lactone] | 12 | – | –
21 | CCCC=CCCCCCCC(O)CC(=O)N[C@H]1CCOC1=O (stereo partly drawn) [Example 25, N-(3-Hydroxy-10-tetradecenoyl)-L-homoserine lactone] | 20 | – | –
22 | CCC=CCCCCCCCC(O)CC(=O)N[C@H]1CCOC1=O (stereo partly drawn) [Example 26, N-(3-Hydroxy-11-tetradecenoyl)-L-homoserine lactone] | 20 | – | –
23 | C=CCCCCCCCCCC(O)CC(=O)N[C@H]1CCOC1=O (stereo partly drawn) [Example 27, N-(3-Hydroxy-13-tetradecenoyl)-L-homoserine lactone] | 18 | – | –
24 | CCCC(=O)CC(=O)N[C@H]1CCOC1=O [OHHL, reference compound] | – | – | inhibition of LPS induced TNF-α production by human PBMC, in words (TNF-alpha; LPS-stimulated human PBMC): difference in activity between OHHL and OdDHL is marked
25 | CCCCCC(=O)CC(=O)N[C@H]1CCOC1=O [OOHL, N-(3-oxooctanoyl)-L-homoserine lactone, reference compound] | – | – | inhibition of ConA induced murine splenocyte proliferation (cpm), in words (murine splenocytes; ConA 1 μg/ml, BALB/c splenocytes): failed to inhibit proliferation
26 | N-(3-Hydroxy-9-tetradecenoyl)-L-homoserine lactone [Example 24] | 15 | – | –
